PubChem BioAssay (NCI)
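Tested at 5 concentrations; 48 h exposure; 96-well plates; endpoints linearly interpolated, else capped at highest concentration. The concentration for full growth arrest is given as TGI.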

Assays:
Assay in all cases: NCI-60 cell line screen, 48 h
[1] = tested on: SF-295 CNS
[2] = tested on: MDA-N
[3] = tested on: HOP-62 NSCLC
[4] = tested on: SK-OV-3 ovarian
[5] = tested on: UACC-257 melanoma
[6] = tested on: PC-3 prostate
[7] = tested on: SW-620 colon
[8] = tested on: SF-268 CNS
[9] = tested on: SN12C renal
[10] = tested on: U251 CNS
[11] = tested on: SNB-75 CNS
[12] = tested on: CCRF-CEM leukemia
[13] = tested on: KM12 colon
[14] = tested on: HCT-15 colon
[15] = tested on: SF-539 CNS
[16] = tested on: MCF7 breast
[17] = tested on: SK-MEL-2 melanoma
[18] = tested on: NCI-H522 lung
[19] = tested on: 786-0 renal
[20] = tested on: T-47D breast
[21] = tested on: RXF 393 renal
[22] = tested on: BT-549 breast
[23] = tested on: SK-MEL-28 melanoma
[24] = tested on: A498 renal
[25] = tested on: K-562 leukemia
[26] = tested on: UACC-62 melanoma
[27] = tested on: SNB-19 CNS
[28] = tested on: HL-60(TB) leukemia
[29] = tested on: EKVX NSCLC
[30] = tested on: RPMI-8226 leukemia
[31] = tested on: HCT-116 colon
[32] = tested on: SR leukemia
[33] = tested on: NCI/ADR-RES ovarian
[34] = tested on: DU-145 prostate
[35] = tested on: IGROV1 ovarian
[36] = tested on: OVCAR-4 ovarian
[37] = tested on: HT29 colon
[38] = tested on: NCI-H226 lung
[39] = tested on: ACHN renal
[40] = tested on: NCI-H460 lung
[41] = tested on: M14 melanoma
[42] = tested on: OVCAR-5 ovarian
[43] = tested on: MOLT-4 leukemia
[44] = tested on: HOP-92 NSCLC
[45] = tested on: COLO 205 colon
[46] = tested on: MDA-MB-435
[47] = tested on: NCI-H23 lung
[48] = tested on: HS 578T breast
[49] = tested on: OVCAR-8 ovarian
[50] = tested on: OVCAR-3 ovarian
[51] = tested on: UO-31 renal
[52] = tested on: A549 NSCLC

Measured: TGI

COc1cc2c(c(O)c1O)C(=O)C1CCC(=O)N1C2c1cccc2ccccc12 (configuration not stated)
> 50 µM: [1] | [2] | [3] | [4] | [5] | [6] | [7] | [8] | [9] | [10] | [11] | [12] | [13] | [14] | [15] | [16] | [17] | [18] | [19] | [20] | [21] | [22] | [23] | [24] | [25] | [26] | [27] | [28] | [29] | [30] | [31] | [32] | [33] | [34] | [35] | [36] | [37] | [38] | [39] | [40] | [41] | [42] | [43] | [44] | [45] | [46] | [47] | [48] | [49] | [50] | [51] | [52]
